This is an account of results in US20250213526A1, “TRIPLE UPTAKE INHIBITOR FOR THE TREATMENT OF ATYPICAL DEPRESSION” (priority 2022, published 2025).

The experiment concerns Male Long Evans Rats. As to the kind of experiment: 5-choice serial reaction time task (5-CSRTT). It is filed as in vivo, rat. From the text: The 5-choice serial reaction time task (5-CSRTT) is widely used to measure attentional performance and response control (motor impulsivity) in rodents. A strength of the test is its adaptability to task modification. Variations to stimulus duration and frequency of stimulus presentation, amongst others, have become commonly used to challenge performance in the context of attention and response control. The primary objective of these studies was to examine the effect of Compound 1 on attentional performance and on aspects of response control, defined as premature responses (PREM) and perseverative responses (PSV), measures of impulsive action, and compulsive action respectively. Two experimental manipulations were undertaken to differentially challenge performance. Specifically, (1) test Compound 1 (1, 3, 10 mg/kg) under standard test conditions of 0.75 s SD, 5 s ITI, 100 trials, and (2) test Compound 1 (1, 3 mg/kg) against a long ITI challenge. The long ITI challenge is designed to elevate PREM and PSV responses and so provide a means to examine the effect of both test articles on measures of impulsive and compulsive action.
• Dosage form: 0.3% Tween80 in 0.9% Saline • Pretreatment time: 180 minutes
• Dosage form: Compound 1 was suspended in 0.3% Tween80 in 0.9% Saline and sonicated. Drug was administered at a volume of 5 mL/kg, oral (PO) route. • Pretreatment time: 180 minutes • Doses tested: Phase 1: 1, 3, 10 mg/kg; Phase 2: 1, 3 mg/kg
Housing and Management of Test System: Following a one-week period of familiarization to the test facility, animals were placed on a restricted diet regimen, in which they were fed approximately 20 g of standard laboratory chow once per day (corresponding to ˜80% of normal food consumption) following the completion of study procedures (between 16:00 h and 18:00 h). Overall food intakes were therefore based on food earned during 5-choice training/testing and chow at the end of each study day. On days where no training/testing occurred, the daily allotted lab chow was increased to approximately 24 g per animal. Water was available ad-libitum except during 5-choice training/testing sessions. Animals were maintained on a 12 h/12 h light/dark cycle with all testing conducted during the animals' light cycle.
5-choice serial reaction time task: 5-choice operant chambers were housed in sound-insulated and ventilated enclosures. Chambers consisted of an aluminum enclosure (25×30 cm), containing a reward magazine attached to a food pellet dispenser and house light on one wall, and on the opposite wall an array of 5 square niches (2.5×2.5×2.5 cm) arranged on a curved panel and raised 2.5 cm from the grid floor. An LED was positioned at the rear of each niche. Each niche, and the reward magazine, also contained a photocell to detect head entry. Test chambers were controlled by Med PC software.
The 5-CSRTT schedule began with the illumination of the house light and delivery of a food pellet. A nose-poke into the magazine tray initiated the first trial which consisted of an inter-trial interval (ITI, 5 s) followed by the random illumination of one of the 5 lights for a fixed interval (stimulus duration, SD). If a nose-poke was registered in the illuminated niche before the end of either the SD, or a fixed interval after this period (limited hold, LH) a further pellet was dispensed and a Correct Trial registered. […] PSV responses were not punished by a TO.
Each session ran for either 100 trials or 60 min, depending on which session endpoint was achieved first. Animals were trained via a series of steps to final test conditions of 0.75 s SD, 5 s ITI, 5 s limited hold. Target performance was stable performance around a threshold of 80% correct ([correct/(correct+incorrect)]*100) and <20% omissions for at least a two week period. At this point drug testing began according to a repeated measures design with animals receiving treatment over repeated test sessions. […]

Where [1] appears, read: standard conditions 0.75 s SD, 5 s ITI, 100 trials, 1, 3, 10 mg/kg PO, P<0.01.
Setting [2] is: standard conditions, 1, 3, 10 mg/kg PO.

“Also recorded” adds a separate entry of the source.

With `CCC[C@]1(C(=O)c2ccc(Cl)c(Cl)c2)CCNC1` [Compound 1, (3,4-dichloro-phenyl)-((S)-3-propyl-pyrrolidin-3-yl)-methanone], where the note is “10 s ITI schedule, 1 and 3 mg/kg PO, LI and HI subgroups, P<0.01”, the “PREM responses in low/high impulsive subgroups” value was “main effects of treatment and subgroup x treatment interactions”. For the same compound, the “PSV responses in low/high impulsive subgroups” value (10 s ITI schedule, 1 and 3 mg/kg PO, LI and HI subgroups, treatment P=0.02, interaction P<0.01) is “main effects of treatment and subgroup x treatment interactions”. The “any task measure (accuracy % correct, % hit, PREM/PSV responses)” value (10 s ITI, 0.3 s SD schedule, 1 and 3 mg/kg PO, all N=21 rats, F2,40≤2.5, NS) is reported as “no main effects of treatment on any measure”. For the same compound, the “impulsive behaviors in rats” value (FIGS. 10A and 10B) is reported as “reduces impulsive behaviors”. Further, under setting [1], the “perseverative (PSV) responses relative to vehicle” value is recorded as “dose-related decrease; also recorded: dose-dependently reduced” and the “premature (PREM) responses relative to vehicle” value is on record as “dose-related decrease; also recorded: dose-dependently reduced”. The trial number entry (standard conditions, 10 mg/kg PO) was “decreased”. Under setting [2], the accuracy entry is listed as “no main effects of treatment; also recorded: no adverse effects” and the speed of responding result was “no adverse effects”.
